In experiment [1] the test system is NCI-H520. The experiment can be described thus: In vitro anti-tumor activity evaluation test (CCK-8), NCI-H520. Format: cell-based, human. The conditions noted are these: Homo sapiens, NCI-H520, 72 h; for inhibition at 1 µM: read-out: Inhibitory rates against tumor cell lines; for IC50: read-out: IC50 against different tumor cell lines. As to the method: (§1) • (1) Cells were digested and counted. Cell suspensions (H520, SW620 5.0×10^4 cells/mL, and U87MG 3.5×10^4 cells/mL) were prepared. 100 μL of cell suspension was added to each well of a 96-well cell culture plate. • (2) The 96-well cell culture plate was incubated in a 37° C., 5%, CO2 incubator for 24 h. • (3) A drug was diluted with a culture medium to a desired working solution concentration. 100 μL of the corresponding drug-containing culture medium was added to each well. At the same time, a negative control group and a positive control group were set up. • (4) The 96-well cell culture plate was incubated in a 37° C., 5%, CO2 incubator for 72 h. • (5) The 96-well plate was stained with CCK-8, and at λ=450 nm, the OD value was determined. • 1) 10 μL of CCK-8 was added to each well. The culture plate continued to be incubated in the incubator for 2-3 h. • 2) The culture plate was rocked for 10 min to gently mix and remove air bubbles from the 96-well plate. • 3) At λ=450 nm, the OD value of each well was read by the enzyme marker, and the inhibitory rates were calculated. • (6) According to the following equation (1), the growth inhibitory rate of the tumor cells was obtained. The obtained results were substituted into an IC 50 calculation software SPSS17.0 to find out the IC50 value.

For experiment [2], the system named is U87MG. Put plainly: In vitro anti-tumor activity evaluation test (CCK-8), U87MG. Format: cell-based, human. The conditions noted are these: Homo sapiens, U-87 MG, U87MG, 72 h; for inhibition at 1 µM: read-out: Inhibitory rates against tumor cell lines; for IC50: read-out: IC50 against different tumor cell lines. The method, then:
as §1

A short description of experiment [3]: In vitro NO release test (incubation with L-cysteine, OD at 550 nm). Particulars: 100 μM solution with cysteine solution, 37° C. The method, then:
• (1) Sodium nitrite solutions with different concentrations were prepared. A calibration curve was drawn. • (2) The sample was treated. A 100 μM solution was prepared. 2.5 mL of the prepared compound solution and 2.5 mL of the cysteine solution were taken and incubated at 37° C. for 120 min, and the resulting mixture was sampled at different time points. • (3) A blank hole and a standard hole were set. 160 μL of the sample was collected and mixed evenly with 0.08 mL of a developer and stood at 37° C. for 15 min. At λ=550 nm, the OD value of absorbance was measured by the enzyme marker. The NO release levels were obtained by substituting the value into the standard curve.

Experiment [4] concerns SW620. The experiment can be described thus: In vitro anti-tumor activity evaluation test (CCK-8), SW620. Format: cell-based, human. Particulars: Homo sapiens, SW-620; SW620; 1 μM; 72 h; read-out: Inhibitory rates against tumor cell lines. As to the method:
as §1

One may read the IC50 as the concentration needed to halve the response being measured.

Consider `C=C[C@]1(C)CC[C@@H](C(=C)CN(CCOC(=O)CCCC(=O)OCC#CCOc2no[n+]([O-])c2S(=O)(=O)c2ccccc2)C(C)C)C[C@H]1C(=C)CCl` [Example 8], for which the inhibition at 1 µM in experiment [1] is 5.6 ± 1.6%; in experiment [2], 4.5 ± 1%; in experiment [4], 10.8 ± 3.2%. Moreover, the NO-release concentrations in experiment [3] (5 min) is 10.55 µM; in experiment [3] (10 min), 12.34 µM; in experiment [3] (20 min) it was 15.52 µM; in experiment [3] (30 min), 18.95 µM; in experiment [3] (60 min), 29.50 µM; in experiment [3] (90 min), 43.00 µM. Also, the NO-release concentrations in experiment [3] (120 min) was 55.33 µM.
As to `C=C[C@]1(C)CC[C@@H](C(=C)CN2CCN(CCOC(=O)CCC(=O)OCC#CCOc3no[n+]([O-])c3S(=O)(=O)c3ccccc3)CC2)C[C@H]1C(=C)CCl` [Example 23, 4-((4-((4-(2-(4-(2-((1R,3R,4S)-3-(3-chloroprop-1-en-2-yl)-4-methyl-4-vinylcyclohexyl)allyl)piperazin-1-yl)ethyoxyl)-4-oxobutanoyl)oxy)but-2-yn-1-yl)oxy)-3-(phenylsulfonyl)-1,2,5-oxadiazole 2-oxide], the figures for the inhibition at 1 µM in experiment [1], in experiment [2] and in experiment [4] were 30.3 ± 2.9%, 33.4 ± 1.5% and 21.2 ± 2.1%, respectively. Further, the NO-release concentrations is 4.74 µM in experiment [3] (5 min); 5.95 µM in experiment [3] (10 min); 7.49 µM in experiment [3] (20 min); 7.63 µM in experiment [3] (30 min); 8.44 µM in experiment [3] (60 min); 13.57 µM in experiment [3] (90 min). This compound gave an NO-release concentrations in experiment [3] (120 min) of 17.82 µM.
In the case of `C=C[C@]1(C)CC[C@@H](C(=C)CN2CCN(CCOC(=O)CCCC(=O)OCCOc3no[n+]([O-])c3S(=O)(=O)c3ccccc3)CC2)C[C@H]1C(=C)CCl` [Example 22], the figures for the inhibition at 1 µM in experiment [1], in experiment [2] and in experiment [4] were 44.1 ± 2.4%, 52.4 ± 2% and 42.8 ± 0.5%, respectively. Further, the IC50 in experiment [1] was 962 ± 54 nM; in experiment [2] it was 372 ± 6 nM. Also, the NO-release concentrations in experiment [3] (5 min) is 0.33 µM; in experiment [3] (10 min), 0.90 µM; in experiment [3] (20 min), 1.35 µM; in experiment [3] (30 min), 1.91 µM; in experiment [3] (60 min), 4.05 µM; in experiment [3] (90 min), 7.20 µM. In experiment [3] (120 min), this compound displayed an NO-release concentrations of 10.51 µM.
For `C=C[C@]1(C)CC[C@@H](C(=C)CN(C)CCOC(=O)CCC(=O)OCCOc2no[n+]([O-])c2S(=O)(=O)c2ccccc2)C[C@H]1C(=C)CCl` [Example 1, 4-(2-((4-(2-((2-((1R,3R,4S)-3-(3-chloroprop-1-en-2-yl)-4-methyl-4-vinylcyclohexyl))(methyl)amino)ethyoxyl)-4-oxobutanoyl)oxy)ethyoxyl)-3-(phenylsulfonyl)-1,2,5-oxadiazole 2-oxide], the values for the inhibition at 1 µM in experiment [1], in experiment [2] and in experiment [4] were 28.8 ± 0.8%, 39.5 ± 2.1% and 30.7 ± 3.5%, respectively. In addition, the NO-release concentrations turned out to be 1.73 µM in experiment [3] (5 min); 2.31 µM in experiment [3] (10 min); 2.90 µM in experiment [3] (20 min); 4.04 µM in experiment [3] (30 min); 7.76 µM in experiment [3] (60 min); 12.67 µM in experiment [3] (90 min). The compound further gave an NO-release concentrations in experiment [3] (120 min) of 17.21 µM.
As to `C=C[C@]1(C)CC[C@@H](C(=C)CN2CCCC(COC(=O)CCCC(=O)OCC#CCOc3no[n+]([O-])c3S(=O)(=O)c3ccccc3)C2)C[C@H]1C(=C)CCl` (stereo partly drawn) [Example 20, 4-((4-((5-((1-(2-((1R,3R,4S)-3-(3-chloroprop-1-en-2-yl)-4-methyl-4-vinylcyclohexyl)allyl)piperidin-3-yl)methoxyl)-5-oxopentanoyl)oxy)but-2-yn-1-yl)oxy)-3-(phenylsulfonyl)-1,2,5-oxadiazole 2-oxide], the results for the inhibition at 1 µM in experiment [1], in experiment [2] and in experiment [4] were 44.5 ± 2.4%, 53.9 ± 0.6% and 43.2 ± 1.8%, respectively. Further, the values for the IC50 in experiment [1] and in experiment [2] were 1180 ± 66 nM and 1110 ± 52 nM, respectively. Besides, the NO-release concentrations in experiment [3] (5 min) was found to be 15.19 µM; in experiment [3] (10 min) it was 17.57 µM; in experiment [3] (20 min) it was 21.33 µM; in experiment [3] (30 min), 25.52 µM; in experiment [3] (60 min) it was 39.29 µM; in experiment [3] (90 min) it was 58.12 µM. The compound also gave an NO-release concentrations in experiment [3] (120 min) of 77.28 µM.
Take `C=C[C@]1(C)CC[C@@H](C(=C)CN2CCC(COC(=O)CCCC(=O)OCC#CCOc3no[n+]([O-])c3S(=O)(=O)c3ccccc3)CC2)C[C@H]1C(=C)CCl` [Example 16, 4-((4-((5-((1-(2-((1R,3R,4S)-3-(3-chloroprop-1-en-2-yl)-4-methyl-4-vinylcyclohexyl)allyl)piperidin-4-yl)methoxyl)-5-oxopentanoyl)oxy)but-2-yn-1-yl)oxy)-3-(phenylsulfonyl)-1,2,5-oxadiazole 2-oxide]: the inhibition at 1 µM in experiment [1] was found to be 52.3 ± 1.1%; in experiment [2] it was 52.2 ± 3.4%; in experiment [4], 39.8 ± 1.9%. For the same compound, the values for the IC50 in experiment [1] and in experiment [2] were 1050 ± 13 nM and 2160 ± 548 nM, respectively. For the same compound, the NO-release concentrations turned out to be 16.99 µM in experiment [3] (5 min); 18.93 µM in experiment [3] (10 min); 22.62 µM in experiment [3] (20 min); 27.04 µM in experiment [3] (30 min); 42.47 µM in experiment [3] (60 min); 64.24 µM in experiment [3] (90 min). The NO-release concentrations in experiment [3] (120 min) amounted to 86.29 µM.
As for `C=C[C@]1(C)CC[C@@H](C(=C)CN2CCCC(COC(=O)CCC(=O)OCC#CCOc3no[n+]([O-])c3S(=O)(=O)c3ccccc3)C2)C[C@H]1C(=C)CCl` (stereo partly drawn) [Example 19, 4-((4-((4-((1-(2-((1R,3R,4S)-3-(3-chloroprop-1-en-2-yl)-4-methyl-4-vinylcyclohexyl)allyl)piperidin-3-yl)methoxyl)-4-oxobutanoyl)oxy)but-2-yn-1-yl)oxy)-3-(phenylsulfonyl)-1,2,5-oxadiazole 2-oxide], the inhibition at 1 µM in experiment [1] is 46.1 ± 2.7%; in experiment [2] it was 41.9 ± 1.1%; in experiment [4], 40.6 ± 2.8%. Moreover, in experiment [2], the IC50 was 985 ± 12 nM. The NO-release concentrations in experiment [3] (5 min) turned out to be 13.76 µM; in experiment [3] (10 min), 15.87 µM; in experiment [3] (20 min), 19.21 µM; in experiment [3] (30 min), 22.88 µM; in experiment [3] (60 min), 34.60 µM; in experiment [3] (90 min) it was 48.73 µM. In addition, in experiment [3] (120 min), the NO-release concentrations worked out at 56.52 µM.

Source of the values: patent US12624012B2, “14-chloro-β-elemene nitric oxide donor derivative and preparation method and use thereof” (HANGZHOU NORMAL UNIVERSITY, priority 2021, dated 2026).
